What was measured:
BRD4 (His-Brd4(44-477)) = BRD4 (His-Brd4(44-477)) (Homo sapiens (Human), UniProt O60885); experiment: TR-FRET in-vitro binding assay for BRD4; conditions: single determination or n ≧ 2 independent determinations, read-out: Biochemical IC50 BRD4
How it was run: (§1)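 His-tagged BRD2, BRD3 and BRD4 fragments tested by TR-FRET at 8 compound concentrations, with DMSO stocks at 10 mM. Read on EnVision after 35 min incubation at 30° C.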

BRD2 (His-Brd2(60-472)) = BRD2 (His-Brd2(60-472)) (Homo sapiens (Human), UniProt P25440); experiment: TR-FRET in-vitro binding assay for BRD2; conditions: single determination or n ≧ 2 independent determinations, read-out: Biochemical IC50 BRD2
Sequence of BRD2 (His-Brd2(60-472)) (P25440 60-472): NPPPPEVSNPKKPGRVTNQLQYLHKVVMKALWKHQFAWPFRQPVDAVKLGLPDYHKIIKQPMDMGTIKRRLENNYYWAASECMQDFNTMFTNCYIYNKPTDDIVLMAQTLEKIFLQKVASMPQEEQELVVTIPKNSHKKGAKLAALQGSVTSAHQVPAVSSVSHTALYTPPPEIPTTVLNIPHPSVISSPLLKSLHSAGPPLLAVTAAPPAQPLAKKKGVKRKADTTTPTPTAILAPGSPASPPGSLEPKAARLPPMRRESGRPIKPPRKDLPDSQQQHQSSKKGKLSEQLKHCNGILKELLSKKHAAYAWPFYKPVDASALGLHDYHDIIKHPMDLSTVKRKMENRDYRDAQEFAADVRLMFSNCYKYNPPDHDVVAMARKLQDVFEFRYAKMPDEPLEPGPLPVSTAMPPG
How it was run: as §1

BRD3 (His-Brd3(20-477)) = BRD3 (His-Brd3(20-477)) (Homo sapiens (Human), UniProt Q15059); experiment: TR-FRET in-vitro binding assay for BRD3; conditions: single determination or n ≧ 2 independent determinations, read-out: Biochemical IC50 BRD3
Sequence of BRD3 (His-Brd3(20-477)) (Q15059 20-477): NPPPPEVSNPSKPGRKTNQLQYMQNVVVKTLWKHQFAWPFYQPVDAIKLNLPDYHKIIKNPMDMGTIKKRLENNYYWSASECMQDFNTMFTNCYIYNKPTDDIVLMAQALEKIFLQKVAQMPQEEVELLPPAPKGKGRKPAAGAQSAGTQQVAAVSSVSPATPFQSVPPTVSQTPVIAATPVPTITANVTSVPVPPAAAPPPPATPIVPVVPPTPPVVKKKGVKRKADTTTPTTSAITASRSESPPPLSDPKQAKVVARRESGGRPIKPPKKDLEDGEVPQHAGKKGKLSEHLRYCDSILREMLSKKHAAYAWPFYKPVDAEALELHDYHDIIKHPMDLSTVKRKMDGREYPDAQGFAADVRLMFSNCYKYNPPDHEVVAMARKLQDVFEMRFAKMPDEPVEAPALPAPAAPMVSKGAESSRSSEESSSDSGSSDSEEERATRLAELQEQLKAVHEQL
How it was run: as §1

[1] = biological target: CREBBP bromodomain (His-CREBBP(1081-1197)) (Homo sapiens (Human), UniProt Q92793); experiment: AlphaScreen in-vitro binding assay for CREBBP; conditions: single determination or n ≧ 2 independent determinations, read-out: Biochemical IC50 CREBBP
Sequence of CREBBP bromodomain (His-CREBBP(1081-1197)) (Q92793 1081-1197): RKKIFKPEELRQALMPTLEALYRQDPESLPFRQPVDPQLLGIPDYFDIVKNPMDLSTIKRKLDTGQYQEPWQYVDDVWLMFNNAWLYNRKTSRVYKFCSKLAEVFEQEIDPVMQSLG
How it was run: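 Detection used nickel-chelate acceptor plus streptavidin donor AlphaScreen beads, 1 h room temperature. Percent inhibition fitted by non-linear regression to IC50.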

THP-1 cells = experiment: Cell growth inhibition assay (CellTiter-Glo), THP-1; conditions: for GI50: Homo sapiens, THP-1, read-out: THP-1 GI50; for THP-1 TGI: THP-1 cells, total growth inhibition, CellTiter-Glo;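 as to all read-outs here: viability read as cellular ATP luminescence after 4 days, 3-fold dilution series from 10 µM, DMSO vehicle-treated cells taken as 100%, cell-free medium wells as −100%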
K-562 cells = experiment: Cell growth inhibition assay (CellTiter-Glo), K-562; conditions: for GI50: Homo sapiens, K562, read-out: K-562 GI50; for K-562 TGI: K-562 cells, total growth inhibition, CellTiter-Glo;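 as to all read-outs here: cellular ATP measured by luminescence after 4 days of exposure, 3-fold dilution series from 10 µM, DMSO vehicle-treated cells define 100%, cell-free medium wells −100%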
MV-4-11 cells = experiment: Cell growth inhibition assay (CellTiter-Glo), MV-4-11; conditions: for GI50: Homo sapiens, MV4-11, read-out: MV-4-11 GI50; for MV-4-11 TGI: MV-4-11 cells, total growth inhibition, CellTiter-Glo;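 as to all read-outs here: cellular ATP luminescence after 4 days, 3-fold dilution series from 10 µM top dose, vehicle (0.1% DMSO) set to 100%, cell-free medium set to −100%, day 0 corrected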

Structure (SMILES)	IC50 (BRD4 (His-Brd4(44-477)))	IC50 (BRD2 (His-Brd2(60-472)))	IC50 (BRD3 (His-Brd3(20-477)))	IC50 [1]	GI50 (THP-1 cells)	GI50 (K-562 cells)	GI50 (MV-4-11 cells)	THP-1 TGI (THP-1 cells)	K-562 TGI (K-562 cells)	MV-4-11 TGI (MV-4-11 cells)
Cc1cc(N2C(=O)c3nc(C4=CCOCC4)[nH]c3[C@H]2c2ccc(Cl)cc2)cn2c(C)nnc12 [Example 167, (R)-6-(4-chlorophenyl)-2-(3,6-dihydro-2H-pyran-4-yl)-5-(3,8-dimethyl-[1,2,4]triazolo[4,3-a]pyridin-6-yl)-5,6-dihydropyrrolo[3,4-d]imidazol-4(1H)-one]	35 nM	63 nM	53 nM	1650 nM	103 nM	537 nM	33.6 nM	188.5 nM	>10000 nM	57.85 nM
COc1ncccc1-c1nc2c([nH]1)[C@@H](c1ccc(Cl)cc1)N(c1cc(C)c(=O)n(C)c1)C2=O [Example 156, (R)-6-(4-chlorophenyl)-5-(1,5-dimethyl-6-oxo-1,6-dihydropyridin-3-yl)-2-(2-methoxypyridin-3-yl)-5,6-dihydropyrrolo[3,4-d]imidazol-4(1H)-one]	25 nM	32 nM	29.5 nM	260 nM	43.4 nM	122 nM	25.4 nM	99 nM	>10000 nM	51.35 nM
COc1ncccc1-c1nc2c(n1C(C)C)[C@@H](c1ccc(Cl)cc1)N(c1cc(C)c3nnn(C)c3n1)C2=O [Example 158, (R)-6-(4-chlorophenyl)-5-(3,7-dimethyl-3H-[1,2,3]triazolo[4,5-b]pyridin-5-yl)-1-isopropyl-2-(2-methoxypyridin-3-yl)-5,6-dihydropyrrolo[3,4-d]imidazol-4(1H)-one]	< 11 nM	16 nM	< 11 nM	> 37000 nM	2 nM	8.73 nM	1.64 nM	5.065 nM	>10000 nM	3.29 nM
Cc1cc(N2C(=O)c3nc(C)n(C(C)C)c3[C@H]2c2ccc(Cl)cc2)nn2c(C)nnc12 [Example 110, (R)-6-(4-chlorophenyl)-5-(3,8-dimethyl-[1,2,4]triazolo[4,3-b]pyridazin-6-yl)-1-isopropyl-2-methyl-5,6-dihydropyrrolo[3,4-d]imidazol-4(1H)-one]	< 11 nM	12 nM	< 11 nM	35900 nM	6.94 nM	30.6 nM	4.48 nM	21.6 nM	>10000 nM	11 nM
Cc1cc(N2C(=O)c3nc(C4CCNCC4)n(C(C)C)c3C2c2ccc(Cl)cc2)cn2c(C)nnc12 (centres unmarked) [Example 75, 6-(4-chlorophenyl)-5-(3,8-dimethyl-[1,2,4]triazolo[4,3-a]pyridin-6-yl)-1-isopropyl-2-(Piperidin-4-yl)-5,6-dihydropyrrolo[3,4-d]imidazol-4(1H)-one]	17 nM	27 nM	24 nM	4900 nM	1600 nM	8650 nM	780 nM	8630 nM	>10000 nM	1125 nM
COc1ccc(-c2nc3c(n2C(C)C)[C@@H](c2ccc(Cl)cc2)N(c2cc(C)c4nnn(C)c4n2)C3=O)cn1 [Example 154, (R)-6-(4-chlorophenyl)-5-(3,7-dimethyl-3H-[1,2,3]triazolo[4,5-b]pyridin-5-yl)-1-isopropyl-2-(6-methoxypyridin-3-yl)-5,6-dihydropyrrolo[3,4-d]imidazol-4(1H)-one]	19 nM	42 nM	19 nM	> 37000 nM	4.68 nM	21.4 nM	3.64 nM	12.2 nM	>10000 nM	8.305 nM

Further lines, with some results ahead:

IC50 (BRD4 (His-Brd4(44-477)))	IC50 (BRD2 (His-Brd2(60-472)))	IC50 (BRD3 (His-Brd3(20-477)))	IC50 [1]	GI50 (THP-1 cells)	GI50 (K-562 cells)	GI50 (MV-4-11 cells)	Structure (SMILES)	THP-1 TGI (THP-1 cells)	K-562 TGI (K-562 cells)	MV-4-11 TGI (MV-4-11 cells)
32 nM	140 nM	61 nM	10300 nM	57.9 nM	158 nM	38.2 nM	COc1ncccc1-c1nc2c(n1C(C)C)C(c1ccc(Cl)cc1)N(c1cc(OC)c3nnn(C)c3c1)C2=O (racemic) [Example 74, 6-(4-chlorophenyl)-1-isopropyl-5-(4-methoxy-1-methyl-1H-benzo[d][1,2,3]triazol-6-yl)-2-(2-methoxypyridin-3-yl)-5,6-dihydropyrrolo[3,4-d]imidazol-4(1H)-one]	121 nM	>10000 nM	59.25 nM
< 11 nM	20 nM	12 nM	> 37000 nM	11 nM	46.9 nM	9.57 nM	Cc1cc(N2C(=O)c3nc(C)n(C(C)C)c3[C@H]2c2ccc(Cl)cc2)cn2c(C(F)F)nnc12 [Example 146, (R)-6-(4-chlorophenyl)-5-(3-(difluoromethyl)-8-methyl-[1,2,4]triazolo[4,3-a]pyridin-6-yl)-1-isopropyl-2-methyl-5,6-dihydropyrrolo[3,4-d]imidazol-4(1H)-one]	29.75 nM	>10000 nM	15.05 nM
24.5 nM	100 nM	51.5 nM	17900 nM	65.4 nM	116 nM	28.2 nM	COc1cc(N2C(=O)c3nc(C4=CCOCC4)n(C(C)C)c3[C@H]2c2ccc(Cl)cc2)cc2c1nnn2C [Example 61]	149 nM	>10000 nM	55.1 nM
58 nM	150 nM	92.5 nM	16100 nM	93.6 nM	300 nM	30.6 nM	COc1cc(N2C(=O)c3nc(C4=CCN(C)CC4)n(C(C)C)c3C2c2ccc(Cl)cc2)cc2c1nnn2C (centres unmarked) [Example 73]	254.5 nM	>10000 nM	52.7 nM
26.5 nM	63 nM	25 nM	> 37000 nM	7.22 nM	42.9 nM	4.96 nM	Cc1cc(N2C(=O)c3nc(C4=CCOCC4)n(C(C)C)c3C2c2ccc(Cl)cc2)nn2c(C)nnc12 (centres unmarked) [Example 100, 6-(4-chlorophenyl)-2-(3,6-dihydro-2H-pyran-4-yl)-5-(3,8-dimethyl-[1,2,4]triazolo[4,3-b]pyridazin-6-yl)-1-isopropyl-5,6-dihydropyrrolo[3,4-d]imidazol-4(1H)-one]	26.7 nM	>10000 nM	13.8 nM
12 nM	23 nM	< 11 nM	5100 nM	222 nM	1340 nM	45.8 nM	Cc1cc(N2C(=O)c3nc(C4=CCN(C(=O)NC(C)(C)C)CC4)n(C(C)C)c3C2c2ccc(Cl)cc2)cn2c(C)nnc12 (centres unmarked) [Example 72, N-(tert-butyl)-4-(6-(4-chlorophenyl)-5-(3,8-dimethyl-[1,2,4]triazolo[4,3-a]pyridin-6-yl)-1-isopropyl-4-oxo-1,4,5,6-tetrahydropyrrolo[3,4-d]imidazol-2-yl)-5,6-dihydropyridine-1(2H)-carboxamide]	746 nM	>10000 nM	96.9 nM
13 nM	60 nM	44 nM	34300 nM	11.8 nM	52 nM	8.12 nM	Cc1cc(N2C(=O)c3nc(C4=CCOCC4)n(C(C)C)c3C2c2ccc(Cl)cc2)cn2c(C(F)F)nnc12 (centres unmarked) [Example 147, 6-(4-chlorophenyl)-5-(3-(difluoromethyl)-8-methyl-[1,2,4]triazolo[4,3-a]pyridin-6-yl)-2-(3,6-dihydro-2H-pyran-4-yl)-1-isopropyl-5,6-dihydropyrrolo[3,4-d]imidazol-4(1H)-one]	33.55 nM	>10000 nM	16.25 nM
23 nM	34 nM	24 nM	19600 nM	3.49 nM	15.5 nM	1.86 nM	Cc1cc(N2C(=O)c3nc(C4CCOCC4)n(C(C)C)c3C2c2ccc(Cl)cc2)nn2c(C)nnc12 (centres unmarked) [Example 101, 6-(4-chlorophenyl)-5-(3,8-dimethyl-[1,2,4]triazolo[4,3-b]pyridazin-6-yl)-1-isopropyl-2-(tetrahydro-2H-pyran-4-yl)-5,6-dihydropyrrolo[3,4-d]imidazol-4(1H)-one]	11.05 nM	>10000 nM	4.11 nM
